Laboratory results reported in patent US7981444B2, “Dendritic polymers with enhanced amplification and interior functionality” (Dendritic Nanotechnologies, Inc., priority 2004, dated 2011).

Tests used:
[1] = Thermal Gravimetric Analysis (TGA); assay type: physicochemical; conditions: in nitrogen, scan 20 to 520° C., ramp rate 10 degrees per minute
Description: Thermal Gravimetric Analysis (TGA)
Thermal gravimetric data were obtained on a Universal V3.9A TA Instrument. Temperature scan range was from 20 to 520° C. with a ramp rate of 10 degrees per minute. Sample sizes were typically about 10 mg of solid product.
In comparison, curves 1 and 2 show the thermal degradation profiles of products of Examples 7D and 13, respectively.
TGA Under Same Conditions as Comparative Example I for Various Dendrimers of Formula (I) and PAMAM

[2] = cited from earlier work

## COC(=O)C1CC(=O)N(CCN(CCN2CC(C(=O)OC)CC2=O)CC(O)Cn2c(=O)n(CC(O)CN(CCN3CC(C(=O)OC)CC3=O)CCN3CC(C(=O)OC)CC3=O)c(=O)n(CC(O)CN(CCN3CC(C(=O)OC)CC3=O)CCN3CC(C(=O)OC)CC3=O)c2=O)C1 (stereo not shown) [Example 33]
[1]
  Onset Temp. (° C.): 320 °C
  Temp. (° C.) at 50% wt loss: 407 °C
  Temp. (° C.) at Residue: 500+ ° C.

## tris(hydroxymethyl)amino methane
[2]
  pKa value: 8.10
